# Laboratory results: patent US7091174B2, “Caloxins” (McMaster University, priority 2000, dated 2006)
# Ends that are not written are not given here.
# Key:
# [1] = molecular target: T1, PM Ca^2+-pump 140 kDa acylphosphate intermediate (Homo sapiens, UniProt P23634); assay: Ca2+-dependent acylphosphate formation from 32P-gamma-ATP in erythrocyte leaky ghosts; format: biochemical; details: 3.4 mM peptide, FIG. 1C
# T1 construct: from tissue; host or cells: human erythrocyte leaky ghosts
# Experimental: FIG. 1C is gel showing acylphosphate formation with 3.4 mM caloxin 2A1 or a random peptide. The acylphosphate reaction was carried out and samples analyzed by acid gel electrophoresis as previously described (Grover et al. (1988); Wuytack et al. (1984)). EGTA=1 mM, and CaCl2=0.05 mM.
# (§1) The present invention includes all caloxins isolated according to the method of the invention. Caloxins can be tested for their ability to inhibit the plasma membrane Ca^2+-pump using various assays. In particular, PM Ca^2+ pump is a Ca^2+—Mg^2+-ATPase that binds ATP in presence of Ca^2+ to form an acylphosphate which is then hydrolysed upon Ca^2+ translocation (Guerini (1998)). The effect of caloxins on PM Ca^2+ pump can be tested in two assays using human erythrocyte leaky ghosts: Ca^2+—Mg^2+-ATPase and acylphosphate formation. In particular the inventors have shown that caloxin 2A-1 inhibits erythrocyte leaky ghost Ca^2+—Mg^2+-ATPase (FIG. 1A) producing 50% inhibition at 0.4±0.1 mM. Caloxin 2A-1 inhibits the PM Ca^2+-pump selectively. At a concentration of 0.9 mM, caloxin 2A1 inhibits the erythrocyte ghost Ca^2+—Mg^2+-ATPase by 78±4% but with no effect on Mg^2+-ATPase or Na^+—K^+-ATPase in the ghosts or the Ca^2+—Mg^2+-ATPase in skeletal muscle sarcoplasmic reticulum (FIG. 1B). […]
# [2] = molecular target: T2, erythrocyte leaky ghost Ca^2+—Mg^2+-ATPase (PM Ca^2+ pump) (Homo sapiens, UniProt P23634); assay: Ca2+-Mg2+-ATPase assay with human erythrocyte leaky ghosts (fluorometric coupled enzyme assay); format: biochemical
# T2 construct: Human erythrocyte leaky ghosts (Jarrett et al. (1978)) were assayed for ATPase; from tissue; host or cells: human erythrocyte leaky ghosts prepared from human blood
# Experimental: FIG. 1A is a graph showing Ca^2+—Mg^2+-ATPhase inhibition by caloxin 2A1. Human erythrocyte leaky ghosts (Jarrett et al. (1978)) were assayed for ATPase as described previously (Niggli et al. (1981); Grover (1988)) but by fluorometry. The drawn curve is from a total of 32 data points. Error bars where shown are SEM values.
# The present invention includes all caloxins isolated according to the method of the invention. Caloxins can be tested for their ability to inhibit the plasma membrane Ca^2+-pump using various assays. In particular, PM Ca^2+ pump is a Ca^2+—Mg^2+-ATPase that binds ATP in presence of Ca^2+ to form an acylphosphate which is then hydrolysed upon Ca^2+ translocation (Guerini (1998)). The effect of caloxins on PM Ca^2+ pump can be tested in two assays using human erythrocyte leaky ghosts: Ca^2+—Mg^2+-ATPase and acylphosphate formation. In particular the inventors have shown that caloxin 2A-1 inhibits erythrocyte leaky ghost Ca^2+—Mg^2+-ATPase (FIG. 1A) producing 50% inhibition at 0.4±0.1 mM. Caloxin 2A-1 inhibits the PM Ca^2+-pump selectively. At a concentration of 0.9 mM, caloxin 2A1 inhibits the erythrocyte ghost Ca^2+—Mg^2+-ATPase by 78±4% but with no effect on Mg^2+-ATPase or Na^+—K^+-ATPase in the ghosts or the Ca^2+—Mg^2+-ATPase in skeletal muscle sarcoplasmic reticulum (FIG. 1B). The inhibition is selective to caloxin 2A1 because 0.9 mM of a peptide with randomized caloxin 2A1 sequence (SWSSFPGSGGVSNPN-amide, SEQ.ID.NO.5) has no effect (FIG. 1B) neither does the large mixture of peptides contained in the casein pancreatic hydrolysate (data not shown). Thus, caloxin 2A1 is selective in that it inhibits the PM Ca^2+-pump and not other ATPases. […] Caloxin 2A1 was selected by binding to a PMCA1 sequence but it inhibits PM Ca^2+-pump in erythrocyte ghosts which express mainly PMCA4. This finding is consistent with the high degree of similarity between sequences of PMCA genes in this domain (Swiss Protein Bank accession numbers P20020, Q01814, Q16720, P23634) although we have not ruled out that caloxin 2A1 has different affinities for each isoform. The second PM Ca^2+-pump assay consisted of Ca^2+-dependent formation of the acid stable 140 kDa acylphosphate intermediate from ^32P-γ-ATP in erythrocyte leaky ghosts.
# 1.2. Ca^2+—Mg^2+-ATPase assay with human erythrocyte leaky ghosts: A major hurdle was the lack of an appropriate assay. The difficulties were: (a) calmodulin needed for the PM Ca^2+ pump activity binds on the cytosolic surface of the pump protein and caloxins by definition bind on the outside surface, (b) most tissues have very active ecto-Mg^2+-ATPase and an ER Ca^2+—Mg^2+-ATPase—the latter can be inhibited by thapsigargin but the former poses a major problem. Erythrocyte ghosts contain mostly plasma membrane. Finally we used human erythrocyte ghosts which have low ecto-Mg^2+-ATPase. Fluorometric coupled enzyme assays are more sensitive. We purchased microcuvettes (100–150 μl) for our fluorometer (SPEX Fluorolog 112) with a heated chamber (37° C.) and made the appropriate cuvette adapter. We first monitor basal Mg^2+-ATPhase as slope for the disappearance of NADH fluorescence (ex=340, em=440 nm) in a solution containing 0.2–0.4 mg ghost protein, 0.1 mM ouabain, 100 mM NaCl, 20 mM KCl, 6 mM MgCl2, 30 mM imidazole-HCl pH 7.0, 0.5 mM EDTA, 0.6 mM NADH, 1 mM pyruvate enol phosphate, excess pyruvate kinase-[…], 0.5 mM ATP, 0.5 mM EGTA and 4 ug/ml calmodulin. […] Na^+—K^+-ATPase can be monitored without CaCl2 and ouabain.
# pig coronary artery = assay: Endothelium dependent relaxation of pig coronary artery pre-contracted with KCl; details: pig coronary artery precontracted with KCl, FIG. 3
# [3] = tested on: Na^+—K^+-ATPase in the ghosts; assay: Na+-K+-ATPase in erythrocyte ghosts; format: biochemical, human; details: 0.9 mM
# Text: (§2) FIG. 1B is a bar graph showing the selectivity of caloxin 2A1 for inhibition of PM Ca^2+—Mg^2+-ATPase using caloxin 2A1 or a random peptide (RP). G=ghosts and S=skeletal muscle sarcoplasmic reticulum, Type of ATPhase activity monitored is shown as Ca^2+—Mg^2+, Mg^2+ or Na^+—K^+-ATPase.
# (§3) The present invention includes all caloxins isolated according to the method of the invention. Caloxins can be tested for their ability to inhibit the plasma membrane Ca^2+-pump using various assays. In particular, PM Ca^2+ pump is a Ca^2+—Mg^2+-ATPase that binds ATP in presence of Ca^2+ to form an acylphosphate which is then hydrolysed upon Ca^2+ translocation (Guerini (1998)). The effect of caloxins on PM Ca^2+ pump can be tested in two assays using human erythrocyte leaky ghosts: Ca^2+—Mg^2+-ATPase and acylphosphate formation. […]
# (§4) 1.2. […] We first monitor basal Mg^2+-ATPhase as slope for the disappearance of NADH fluorescence (ex=340, em=440 nm) in a solution containing 0.2–0.4 mg ghost protein, 0.1 mM ouabain, 100 mM NaCl, 20 mM KCl, 6 mM MgCl2, 30 mM imidazole-HCl pH 7.0, 0.5 mM EDTA, 0.6 mM NADH, 1 mM pyruvate enol phosphate, excess pyruvate kinase-[…], 0.5 mM ATP, 0.5 mM EGTA and 4 ug/ml calmodulin. […] Na^+—K^+-ATPase can be monitored without CaCl2 and ouabain.
# PMCA4 = molecular target: T3, PMCA4 (Homo sapiens, UniProt P23634); assay: Ca2+-Mg2+-ATPase activity in microsomes of COS-M6 cells transfected with PMCA4; format: biochemical; details: read-out: inhibition of PMCA4 Ca^2+—Mg^2+-ATPase
# T3 construct: expressed in transfected cells; host or cells: COS-M6 cells, microsomes
# T3 sequence (P23634 1-1241): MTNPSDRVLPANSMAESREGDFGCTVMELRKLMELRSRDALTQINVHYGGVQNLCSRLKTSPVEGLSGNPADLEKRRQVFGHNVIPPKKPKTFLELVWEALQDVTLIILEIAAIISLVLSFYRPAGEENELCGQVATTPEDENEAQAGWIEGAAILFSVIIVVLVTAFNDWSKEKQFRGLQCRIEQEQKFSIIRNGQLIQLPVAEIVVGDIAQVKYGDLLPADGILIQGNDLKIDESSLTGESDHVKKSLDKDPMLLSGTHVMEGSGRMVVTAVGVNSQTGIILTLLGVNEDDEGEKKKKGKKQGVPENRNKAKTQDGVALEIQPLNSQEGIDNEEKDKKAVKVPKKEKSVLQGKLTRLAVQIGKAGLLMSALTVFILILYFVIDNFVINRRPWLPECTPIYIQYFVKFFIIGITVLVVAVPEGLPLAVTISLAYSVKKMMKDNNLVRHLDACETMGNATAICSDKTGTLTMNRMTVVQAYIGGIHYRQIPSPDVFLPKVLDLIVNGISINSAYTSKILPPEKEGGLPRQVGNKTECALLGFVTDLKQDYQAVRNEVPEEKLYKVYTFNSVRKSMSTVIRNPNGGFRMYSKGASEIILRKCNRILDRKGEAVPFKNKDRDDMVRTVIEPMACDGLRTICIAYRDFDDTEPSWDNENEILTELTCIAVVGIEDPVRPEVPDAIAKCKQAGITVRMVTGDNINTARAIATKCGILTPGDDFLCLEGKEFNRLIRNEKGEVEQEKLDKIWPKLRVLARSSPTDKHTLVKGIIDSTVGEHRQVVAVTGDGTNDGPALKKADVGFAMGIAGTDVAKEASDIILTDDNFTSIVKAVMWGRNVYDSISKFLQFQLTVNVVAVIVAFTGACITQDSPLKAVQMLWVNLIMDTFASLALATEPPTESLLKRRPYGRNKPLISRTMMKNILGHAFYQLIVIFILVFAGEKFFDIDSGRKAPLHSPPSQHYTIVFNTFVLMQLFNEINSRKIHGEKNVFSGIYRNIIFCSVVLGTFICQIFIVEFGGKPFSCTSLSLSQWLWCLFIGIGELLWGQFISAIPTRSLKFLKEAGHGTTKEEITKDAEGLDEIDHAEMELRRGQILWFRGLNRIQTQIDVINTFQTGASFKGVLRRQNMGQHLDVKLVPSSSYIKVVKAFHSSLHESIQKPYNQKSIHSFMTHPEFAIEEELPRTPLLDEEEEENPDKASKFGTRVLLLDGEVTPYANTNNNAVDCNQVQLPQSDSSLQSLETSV
# Text: (§5) PM Ca^2+-pump isoforms are encoded by 4 different genes. The inventors determined the effects of caloxin 2A1 on different isoforms. Cos M6 cells were transfected with this DNA using Fugene (purchased from Roche). Microsomes from SF9 cells expressing PMCA2 were a gift from Dr. A. Filoteo.
# (§6) PMCA4 plasmid was transfected into COS-M6 cells. Thirty six to 48 hr later, microsomes were made from these cells and overexpression of the protein was confirmed using Western Blot. The Ca^2+—Mg^2+-ATPase activity in the microsomes was determined. The assay solutions included the following additional reagents: 0.05% Triton X-100, 5 mM sodium azide and 10 uM cyclopiazonic acid. Results: In a total of 22 determinations, the inhibition produced by 0.46,0.94 and 1.87 mM caloxin 2A1 on PMCA4 was 29, 47 and 58%, respectively.
# rat aortic rings = assay: Endothelium dependent relaxation of rat aorta rings precontracted with phenylephrine; details: precontracted with 0.5 μM phenylephrine, 0.34 mM caloxin 2A1, reversed by L-NAME
# Experimental: Rat aorta rings were hung in organ bath as previously described. The rings were contracted with submaximum (0.5 μM) phenylephrine before adding 0.34 mM caloxin 2A1 and 0.1 mM L-nitroarginylmethyl ester) as shown. Each experiment was replicated at least four times.
# Inhibiting the PM Ca^2+ pump in vascular endothelium should increase cytosolic Ca^2+, thereby activating endothelial nitric oxide synthase to relax arteries (Rees et al. (1990); Sato et al. (1990)). […] Thus caloxin 2A1 produced the biological effect in the endothelium which was expected from its inhibiting PM Ca^2+-pump.
# 1.3. […] We anesthetized a rats by methoxyfluorane (Metofane) inhalation and removed its thoracic aorta as 3 mm rings. These tissues relax to 1 μM carbachol after they have been contracted with phenylephrine (0.5 to 2 μM). We initially tried to do these experiments in Na^+-free solution but the tissues gave very poor contractions to phenylephrine. In Na^+-free solution, the tissues contracted to 20–80 mM KCl but relaxation with carbachol was poor. We reverted to using phenylephrine but in Na^+-containing Krebs' solution.
# [4] = tested on: Mg^2+-ATPase in the ghosts; assay: Mg2+-ATPase in erythrocyte ghosts; format: biochemical, human; details: 0.9 mM
# Text: as §2, §3, §4
# PMCA2b = assay: Ca2+-Mg2+-ATPase activity in microsomes from SF9 cells expressing PMCA2; format: biochemical; details: 1.87 mM; two experiments
# Text: as §5, §6
# [5] = tested on: T4, Ca^2+—Mg^2+-ATPase in skeletal muscle sarcoplasmic reticulum; assay: Ca2+-Mg2+-ATPase in skeletal muscle sarcoplasmic reticulum; format: biochemical; details: 0.9 mM
# T4 construct: G=ghosts and S=skeletal muscle sarcoplasmic reticulum; from tissue; host or cells: skeletal muscle sarcoplasmic reticulum
# Text: as §2, §1
# T1 sequence (P23634 1-1205 isoform P23634-6): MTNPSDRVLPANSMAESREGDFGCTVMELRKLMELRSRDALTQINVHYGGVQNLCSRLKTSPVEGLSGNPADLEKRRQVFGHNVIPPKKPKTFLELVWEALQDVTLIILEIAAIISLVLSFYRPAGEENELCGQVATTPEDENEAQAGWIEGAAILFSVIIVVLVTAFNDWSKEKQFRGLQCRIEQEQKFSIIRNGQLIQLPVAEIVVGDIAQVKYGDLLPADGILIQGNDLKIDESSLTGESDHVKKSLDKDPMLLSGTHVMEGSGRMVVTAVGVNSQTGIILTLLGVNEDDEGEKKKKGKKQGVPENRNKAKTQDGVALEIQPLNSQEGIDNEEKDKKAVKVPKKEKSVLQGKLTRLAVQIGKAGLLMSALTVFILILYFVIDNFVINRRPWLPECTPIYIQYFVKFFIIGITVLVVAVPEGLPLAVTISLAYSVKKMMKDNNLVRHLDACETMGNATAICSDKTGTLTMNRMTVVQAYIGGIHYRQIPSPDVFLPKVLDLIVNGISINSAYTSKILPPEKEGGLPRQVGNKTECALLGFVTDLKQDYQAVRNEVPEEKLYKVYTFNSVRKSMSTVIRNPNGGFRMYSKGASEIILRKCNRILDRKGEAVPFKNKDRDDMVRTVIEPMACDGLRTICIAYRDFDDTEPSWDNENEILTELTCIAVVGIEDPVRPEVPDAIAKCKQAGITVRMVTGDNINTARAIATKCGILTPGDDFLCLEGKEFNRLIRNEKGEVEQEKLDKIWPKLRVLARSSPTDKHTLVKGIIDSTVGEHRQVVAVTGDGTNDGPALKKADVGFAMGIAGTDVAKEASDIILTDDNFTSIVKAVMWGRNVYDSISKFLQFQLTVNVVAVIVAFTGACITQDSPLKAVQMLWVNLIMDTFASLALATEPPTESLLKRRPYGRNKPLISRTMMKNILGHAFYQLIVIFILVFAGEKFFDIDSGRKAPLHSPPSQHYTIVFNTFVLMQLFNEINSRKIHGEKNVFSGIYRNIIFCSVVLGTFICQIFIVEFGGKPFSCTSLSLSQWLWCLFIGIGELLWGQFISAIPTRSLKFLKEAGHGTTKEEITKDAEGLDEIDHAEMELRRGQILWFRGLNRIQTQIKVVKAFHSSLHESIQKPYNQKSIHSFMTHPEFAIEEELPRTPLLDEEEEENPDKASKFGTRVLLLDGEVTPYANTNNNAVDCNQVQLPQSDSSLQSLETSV
# T4 sequence (O14983 whole entry): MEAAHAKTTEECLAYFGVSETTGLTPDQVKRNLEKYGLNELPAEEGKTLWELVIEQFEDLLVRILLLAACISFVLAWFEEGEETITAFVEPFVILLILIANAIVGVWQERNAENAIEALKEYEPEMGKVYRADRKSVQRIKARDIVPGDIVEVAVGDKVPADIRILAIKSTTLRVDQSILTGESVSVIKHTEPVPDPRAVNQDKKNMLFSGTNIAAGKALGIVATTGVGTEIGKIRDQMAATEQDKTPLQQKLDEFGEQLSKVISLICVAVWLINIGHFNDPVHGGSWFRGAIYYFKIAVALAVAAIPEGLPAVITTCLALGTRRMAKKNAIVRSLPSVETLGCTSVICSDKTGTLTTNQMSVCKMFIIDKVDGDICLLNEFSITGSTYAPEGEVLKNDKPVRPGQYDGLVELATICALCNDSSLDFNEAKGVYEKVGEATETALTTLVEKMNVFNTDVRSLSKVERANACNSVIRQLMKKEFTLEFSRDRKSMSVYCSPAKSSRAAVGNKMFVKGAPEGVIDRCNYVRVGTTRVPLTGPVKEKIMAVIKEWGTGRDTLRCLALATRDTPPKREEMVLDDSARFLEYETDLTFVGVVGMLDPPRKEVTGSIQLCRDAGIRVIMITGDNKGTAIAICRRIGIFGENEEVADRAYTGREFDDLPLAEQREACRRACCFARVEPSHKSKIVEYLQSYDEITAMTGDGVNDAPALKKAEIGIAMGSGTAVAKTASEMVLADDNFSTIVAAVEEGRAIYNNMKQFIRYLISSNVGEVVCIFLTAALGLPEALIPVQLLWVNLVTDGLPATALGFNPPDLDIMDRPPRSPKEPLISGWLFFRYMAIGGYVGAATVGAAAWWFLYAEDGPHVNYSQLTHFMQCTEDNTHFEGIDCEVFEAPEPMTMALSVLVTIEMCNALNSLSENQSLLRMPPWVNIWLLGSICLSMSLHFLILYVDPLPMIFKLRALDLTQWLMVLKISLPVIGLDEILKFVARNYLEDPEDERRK
Substance,inhibition of acylphosphate formation [1],"effect on erythrocyte ghost Ca^2+—Mg^2+-ATPase (in words) ([2]; 0.9 mM peptide, FIG. 1B)",endothelium dependent relaxation of coronary arteries (pig coronary artery),endothelium dependent relaxation of coronary arteries (pig coronary artery; listed as Caloxin 3A1),effect on erythrocyte ghost Ca^2+—Mg^2+-ATPase (in words) ([2]; concentration not given),effect on Na^+—K^+-ATPase in the ghosts [3],inhibition at 460 µM (PMCA4; 0.46 mM) [%],inhibition at 940 µM (PMCA4; 0.94 mM) [%],inhibition at 1870 µM (PMCA4; 1.87 mM) [%],relaxation of rat aortic rings (rat aortic rings),relaxation of rat aortic rings (rat aortic rings; listed as Caloxin 2A1),inhibition of erythrocyte ghost Ca^2+—Mg^2+-ATPase ([2]; 0.9 mM peptide) [%],"IC50 ([2]; human erythrocyte leaky ghosts, read-out: concentration producing 50% inhibition of erythrocyte leaky ghost Ca^2+—Mg^2+-ATPase) [µM]",effect on Mg^2+-ATPase in the ghosts [4],average inhibition of PMCA2b (PMCA2b) [%],effect on Ca^2+—Mg^2+-ATPase in skeletal muscle sarcoplasmic reticulum [5]
"SWSSFPGSGGVSNPN-amide (SWSSFPGSGGVSNPN-NH2; listed as Homo sapiens) [randomized peptide, reference compound]",does not,no effect,–,–,–,–,–,–,–,–,–,–,–,–,–,–
"Acetyl-DSHINNEPSRRRGGGK (Ac-DSHINNEPSRRRGGGK; listed as Homo sapiens) [caloxin 3A1, peptide isolated by phage display screening against PMCA874]",–,–,endothelium dependent relaxation,produces an endothelium dependent relaxation,inhibits,–,–,–,–,–,–,–,–,–,–,–
"VSNSNWPSFPSSGGG-NH2 [caloxin 2A1, VSNSNWPSFPSSGGG-amide]",inhibits the acylphosphate formation,significant (p<0.05) inhibition,–,–,–,no effect,29,47,58,produced a relaxation,relaxed the aortic rings,78±4,400 ± 100,no effect,46,no effect
